Measured values reported in patent CN1221752A, “与阿卡加定相关的新型羊毛硫抗生素及其制备方法和用途” (priority 1997, dated 1999).
Where two headings read alike, the source gives them in different places.

Legend:
金黄色葡萄球菌 O11HT1 = test: In vitro antibacterial activity, MIC, 18 h; type: cell-based; conditions: incubation time 18h; strain O11HT1
粪肠球茵 02D2DU18 = test: In vitro antibacterial activity, MIC, 18 h; type: cell-based; conditions: incubation time 18h; strain 02D2DU18
化脓葡萄球菌 02A1CU1 = test: In vitro antibacterial activity, MIC, 18 h; type: cell-based; conditions: incubation time 18h; strain 02A1CU1
粪肠球菌 02D2uC5 = test: In vitro antibacterial activity, MIC, 18 h; type: cell-based; conditions: incubation time 18h; strain 02D2uC5
化脓葡萄球菌A561 = type: cell-based, 化脓葡萄球菌; conditions: strain A561
011HT3 = test: In vitro antibacterial activity, MIC, 18 h; type: cell-based; conditions: incubation time 18h
[1] = Solubility (physicochemical properties); conditions: methanol, water
S.mitis 02mitGR16 = test: In vitro antibacterial activity, MIC, 18 h; type: cell-based; conditions: incubation time 18h; strain 02mitGR16
化脓葡萄球菌 02A1SJ1 = test: In vitro antibacterial activity, MIC, 18 h; type: cell-based; conditions: incubation time 18h; strain 02A1SJ1
表皮葡萄球菌 012GO42 = test: In vitro antibacterial activity, MIC, 18 h; type: cell-based; conditions: incubation time 18h; strain 012GO42
金黄色葡萄球菌SG511 = type: cell-based, 金黄色葡萄球菌
[2] = system: Staph.coag.negative012HT5; test: In vitro antibacterial activity, MIC, 18 h; type: cell-based, Staph.coag.negative; conditions: incubation time 18h; strain 012HT5
表皮葡萄球菌 012GO20 = test: In vitro antibacterial activity, MIC, 18 h; type: cell-based; conditions: incubation time 18h; strain 012GO20
金黄色葡萄球菌 011CB20 = test: In vitro antibacterial activity, MIC, 18 h; type: cell-based; conditions: incubation time 18h; strain 011CB20
Streptogr G02G0CB2 = test: In vitro antibacterial activity, MIC, 18 h; type: cell-based, Streptogr G; conditions: incubation time 18h; strain 02G0CB2
化脓葡萄球菌 02A1F16 = test: In vitro antibacterial activity, MIC, 18 h; type: cell-based; conditions: incubation time 18h; strain 02A1F16
粪肠球菌 02D2HT10 = test: In vitro antibacterial activity, MIC, 18 h; type: cell-based; conditions: incubation time 18h; strain 02D2HT10
[3] = Tolerability and toxicity; conditions: at the active concentration and the concentrations mentioned above
粪肠球菌 02D2HM9 = test: In vitro antibacterial activity, MIC, 18 h; type: cell-based; conditions: incubation time 18h; strain 02D2HM9
金黄色葡萄球菌Exp54146 = type: cell-based, 金黄色葡萄球菌; conditions: strain Exp54146
金黄色葡萄球菌 011DU5 = test: In vitro antibacterial activity, MIC, 18 h; type: cell-based; conditions: incubation time 18h; strain 011DU5
[4] = Stability in solution (physicochemical properties); conditions: neutral / weakly alkaline vs strongly acidic / strongly alkaline media
S.milleri 02milGR12 = test: In vitro antibacterial activity, MIC, 18 h; type: cell-based; conditions: incubation time 18h; strain 02milGR12
S.pnenmoniae 030BI2 = test: In vitro antibacterial activity, MIC, 18 h; type: cell-based; conditions: incubation time 18h; strain 030BI2
金黄色葡萄球菌 0121O64 = test: In vitro antibacterial activity, MIC, 18 h; type: cell-based; conditions: incubation time 18h; strain 0121O64
屎肠球菌M78L = type: cell-based, 屎肠球菌; conditions: strain M78L
011HT18 = test: In vitro antibacterial activity, MIC, 18 h; type: cell-based; conditions: incubation time 18h; strain 011HT18
大肠杆菌 = type: cell-based
[5] = strain 011HT3 + 50% serum (first such line)
[6] = strain 011HT3 + 50% serum (second such line)
[7] = incubation time 24h, strain SG511
[8] = incubation time 24h, strain SG511 + 10% serum
[9] = Boc-derivative table, 接种时间24h, strain SG511
[10] = Boc-derivative table, 接种时间24h, strain SG511 + 10% serum

Substance | MIC (金黄色葡萄球菌 O11HT1) | MIC (粪肠球茵 02D2DU18) | MIC (化脓葡萄球菌 02A1CU1) | MIC (粪肠球菌 02D2uC5) | MIC (化脓葡萄球菌A561; incubation time 24h) | MIC (011HT3; strain 011HT3) | MIC (011HT3; [5]) | MIC (011HT3; [6]) | MIC (S.mitis 02mitGR16) | MIC (化脓葡萄球菌 02A1SJ1) | MIC (表皮葡萄球菌 012GO42) | MIC (金黄色葡萄球菌SG511; [7]) | MIC (金黄色葡萄球菌SG511; [8]) | MIC [2] | MIC (表皮葡萄球菌 012GO20) | MIC (Streptogr G02G0CB2) | MIC (化脓葡萄球菌 02A1F16) | MIC (金黄色葡萄球菌Exp54146; incubation time 24h) | MIC (屎肠球菌M78L; incubation time 24h) | MIC (大肠杆菌; incubation time 24h) | other results
Ala(0)-阿卡加定 | 1.1 µg/mL | 5 µg/mL | ≤ 0.04 µg/mL | 20 µg/mL | ≤ 0.04 µg/mL | 20 µg/mL | 20 µg/mL | 40 µg/mL | 20 µg/mL | ≤ 0.04 µg/mL | > 40 µg/mL | 5 µg/mL | 20 µg/mL | > 40 µg/mL | > 40 µg/mL | 20 µg/mL | ≤ 0.04 µg/mL | 40 µg/mL | 5 µg/mL | > 40 µg/mL | Solubility [1]: 溶于甲醇和水; MIC (金黄色葡萄球菌 011CB20): > 40 µg/mL; MIC (粪肠球菌 02D2HT10): > 40 µg/mL; Cytotoxicity or other toxicity [3]: 没有发现其细胞毒性或其它的毒性; Tolerability [3]: 耐受性很好; MIC (粪肠球菌 02D2HM9): > 40 µg/mL; MIC (金黄色葡萄球菌 011DU5): 40 µg/mL; Stability in solution [4]: 于中性和弱碱性介质中稳定，但于强酸性和强碱性溶液中不稳定; MIC (S.milleri 02milGR12): 40 µg/mL; MIC (S.pnenmoniae 030BI2): 2.5 µg/mL; MIC (金黄色葡萄球菌 0121O64): > 40 µg/mL; MIC (011HT18): > 40 µg/mL
Boc-Ile(0)-阿卡加定 [Boc-Ile-Acta] | – | – | – | – | – | – | – | – | – | – | – | – | – | – | – | – | – | – | – | – | MIC (化脓葡萄球菌A561; Boc-derivative table, 接种时间24h): > 40 µg/mL; MIC (金黄色葡萄球菌SG511; [9]): 20 µg/mL; MIC (金黄色葡萄球菌SG511; [10]): 40 µg/mL; MIC (金黄色葡萄球菌Exp54146; Boc-derivative table, 接种时间24h): > 40 µg/mL; MIC (屎肠球菌M78L; Boc-derivative table, 接种时间24h): > 40 µg/mL; MIC (大肠杆菌; Boc-derivative table, 接种时间24h): > 40 µg/mL
Gln(0)-阿卡加定 [Gln-Acta] | – | – | – | – | 5 µg/mL | – | – | – | – | – | – | 20 µg/mL | 40 µg/mL | – | – | – | – | > 40 µg/mL | 10 µg/mL | > 40 µg/mL | –
Ile(0)-阿卡加定 [Ile-Acta] | 1.2 µg/mL | 5 µg/mL | ≤ 0.04 µg/mL | 40 µg/mL | ≤ 0.04 µg/mL | 2.5 µg/mL | 2.5 µg/mL | 5 µg/mL | 10 µg/mL | ≤ 0.04 µg/mL | > 40 µg/mL | 1.2 µg/mL | 2.5 µg/mL | > 40 µg/mL | > 40 µg/mL | 10 µg/mL | ≤ 0.04 µg/mL | 2.5 µg/mL | 5 µg/mL | > 40 µg/mL | MIC (金黄色葡萄球菌 011CB20): 40 µg/mL; MIC (粪肠球菌 02D2HT10): > 40 µg/mL; MIC (粪肠球菌 02D2HM9): 40 µg/mL; MIC (金黄色葡萄球菌 011DU5): 10 µg/mL; MIC (S.milleri 02milGR12): > 40 µg/mL; MIC (S.pnenmoniae 030BI2): 1.2 µg/mL; MIC (金黄色葡萄球菌 0121O64): > 40 µg/mL; MIC (011HT18): > 40 µg/mL
Lys(0)-阿卡加定 [Lys-Acta] | 0.6 µg/mL | 5 µg/mL | ≤ 0.04 µg/mL | 40 µg/mL | ≤ 0.04 µg/mL | 10 µg/mL | 10 µg/mL | 10 µg/mL | 10 µg/mL | ≤ 0.04 µg/mL | > 40 µg/mL | 1.2 µg/mL | 2.5 µg/mL | > 40 µg/mL | > 40 µg/mL | 5 µg/mL | ≤ 0.04 µg/mL | 10 µg/mL | 5 µg/mL | > 40 µg/mL | MIC (金黄色葡萄球菌 011CB20): > 40 µg/mL; MIC (粪肠球菌 02D2HT10): > 40 µg/mL; MIC (粪肠球菌 02D2HM9): > 40 µg/mL; MIC (金黄色葡萄球菌 011DU5): 10 µg/mL; MIC (S.milleri 02milGR12): 40 µg/mL; MIC (S.pnenmoniae 030BI2): 2.5 µg/mL; MIC (金黄色葡萄球菌 0121O64): > 40 µg/mL; MIC (011HT18): > 40 µg/mL
N-Boc-Abu(0)-阿卡加定 [Boc-Abu-Acta] | – | – | – | – | – | – | – | – | – | – | – | – | – | – | – | – | – | – | – | – | MIC (化脓葡萄球菌A561; Boc-derivative table, 接种时间24h): > 40 µg/mL; MIC (金黄色葡萄球菌SG511; [9]): 5 µg/mL; MIC (金黄色葡萄球菌SG511; [10]): 10 µg/mL; MIC (金黄色葡萄球菌Exp54146; Boc-derivative table, 接种时间24h): > 40 µg/mL; MIC (屎肠球菌M78L; Boc-derivative table, 接种时间24h): > 40 µg/mL; MIC (大肠杆菌; Boc-derivative table, 接种时间24h): > 40 µg/mL
Phe(0)-阿卡加定 [Phe-Acta] | – | – | – | – | > 40 µg/mL | – | – | – | – | – | – | 0.6 µg/mL | 5 µg/mL | – | – | – | – | 5 µg/mL | > 40 µg/mL | > 40 µg/mL | –
Phe-Ala(0)-阿卡加定 [Phe-Ala-Acta] | – | – | – | – | > 40 µg/mL | – | – | – | – | – | – | 5 µg/mL | 10 µg/mL | – | – | – | – | 20 µg/mL | 10 µg/mL | > 40 µg/mL | –
二-Boc-Lys(0)-阿卡加定 [Boc-Lys-Acta] | 10 µg/mL | 10 µg/mL | ≤ 0.04 µg/mL | 40 µg/mL | – | 10 µg/mL | 20 µg/mL | 40 µg/mL | 5 µg/mL | 0.08 µg/mL | > 40 µg/mL | – | – | > 40 µg/mL | > 40 µg/mL | 2.5 µg/mL | ≤ 0.04 µg/mL | – | – | – | MIC (化脓葡萄球菌A561; Boc-derivative table, 接种时间24h): ≤ 0.04 µg/mL; MIC (金黄色葡萄球菌SG511; [9]): 2.5 µg/mL; MIC (金黄色葡萄球菌SG511; [10]): 10 µg/mL; MIC (粪肠球菌 02D2HT10): > 40 µg/mL; MIC (粪肠球菌 02D2HM9): > 40 µg/mL; MIC (金黄色葡萄球菌Exp54146; Boc-derivative table, 接种时间24h): 10 µg/mL; MIC (金黄色葡萄球菌 011DU5): 40 µg/mL; MIC (S.milleri 02milGR12): 5 µg/mL; MIC (S.pnenmoniae 030BI2): 1.2 µg/mL; MIC (金黄色葡萄球菌 0121O64): > 40 µg/mL; MIC (屎肠球菌M78L; Boc-derivative table, 接种时间24h): 10 µg/mL; MIC (011HT18): > 40 µg/mL; MIC (大肠杆菌; Boc-derivative table, 接种时间24h): > 40 µg/mL
